According to patent US10865334B2, “Process for extracting materials from biological material” (Universiteit Leiden, priority 2010, dated 2020):
≈ marks a conversion by molar mass, not a printed value.

How the values were obtained:
[1] = solubility data in some typical Des at 40° C.; type: physicochemical; conditions: for solubility in GCH / solubility in H2O / solubility in LGH / solubility in PdCH / solubility in SoCH: n = 3
[2] = solubility of flavonoids in naturally occurring deep eutectic solvents; type: physicochemical
Description: First the solubility of natural products, which are not soluble in water, was evaluated in a few selected natural deep eutectic solvents. Several flavonoids were chosen as the natural water-insoluble products, because they are one of the most abundant water-insoluble plant secondary metabolites. Up to now more than 500 flavonoids have been known. Most of these flavonoids occur in their glycosides forms (bounded to a sugar molecule) in plants. In spite of large abundance of flavonoids in plants, both the glycoside and the aglycone (non-sugar) part are not soluble in water. […] The structure of these flavonoids are shown below.

[3] = deep eutectic solvent GCH, organic solvent or mixture, solvent GCH (Glc:Ch:H2O 1:2.5:2.5), n = 3, read-out: solubility in GCH
[4] = deep eutectic solvent LGH, organic solvent or mixture, solvent LGH (Lac:Glc:H2O 5:1:2), n = 3, read-out: solubility in LGH
[5] = deep eutectic solvent PdCH, organic solvent or mixture, solvent PdCH (1,2Prop:Ch:H20 1:1:1), n = 3, read-out: solubility in PdCH
[6] = deep eutectic solvent SoCH, organic solvent or mixture, solvent SoCH (So:Ch:H2O), n = 3, read-out: solubility in SoCH
[7] = organic solvent or mixture, Solubility in Fructose + Choline chloride
[8] = organic solvent or mixture, Solubility in Glucose + Choline chloride
[9] = solvent GCH (Glc:Ch:H2O 1:2.5:2.5)
[10] = solvent LGH (Lac:Glc:H2O 5:1:2)
[11] = solvent PdCH (1,2Prop:Ch:H20 1:1:1)

| SMILES | solubility [1, 3] [mg/mL] | solubility [1, 4] [mg/mL] | solubility [1, 5] [mg/mL] | solubility [1, 6] [mg/mL] | solubility [2, 7] [mg/mL] | solubility [2, 8] [mg/mL] | solubility ([2]; water, Solubility in Water) [mg/mL] | solubility in GCH [1, 9] [mg/mL] | solubility in H2O ([1]; solvent H2O) [mg/mL] | solubility in LGH [1, 10] [mg/mL] | solubility in PdCH [1, 11] [mg/mL] | solubility in SoCH ([1]; solvent SoCH (So:Ch:H2O)) [mg/mL] | other results |
| --- | --- | --- | --- | --- | --- | --- | --- | --- | --- | --- | --- | --- | --- |
| C[C@@H]1O[C@@H](OC[C@H]2O[C@@H](Oc3c(-c4ccc(O)c(O)c4)oc4cc(O)cc(O)c4c3=O)[C@H](O)[C@@H](O)[C@@H]2O)[C@H](O)[C@H](O)[C@H]1O [rutin, quercetin-3-O-rhanmoglucoside] | 122 ± 1.45 (≈ 199 mM) | 8.14 ± 0.79 (≈ 13.3 mM) | 353 ± 31.2 (≈ 578 mM) | 149 ± 2.61 (≈ 244 mM) | 10.9 ± 1.7 | 4.78 ± 0.84 | < 0.001 | – | – | – | – | – | solubility ([1]; water, solvent H2O, n = 3, read-out: solubility in H2O): 0.028 mg/mL (≈ 0.0459 mM); solubility ([2]; organic solvent or mixture, Solubility in Sucrose + Choline chloride): 2.41 ± 0.18 mg/mL |
| CC1C(=O)OC2C(O)C34C5CC(C(C)(C)C)C36C(OC(=O)C6O)OC4(C(=O)O5)C12O (centres unmarked) [ginkgolide B] | – | – | – | – | – | – | – | 5.85 ± 0.42 (≈ 13.8 mM) | 0.15 ± 0.00 (≈ 0.353 mM) | 1.93 ± 0.31 (≈ 4.55 mM) | 78.42 ± 14.45 (≈ 185 mM) | 1.70 ± 0.01 (≈ 4.01 mM) | – |
| O=C(/C=C/c1ccc(O)cc1)C1=C(O)[C@](O)([C@@H]2O[C@H](CO)[C@@H](O)[C@H](O)[C@H]2O)C(O)=C(/C=C2/C(=O)C(C(=O)/C=C/c3ccc(O)cc3)=C(O)[C@@](O)([C@@H]3O[C@H](CO)[C@@H](O)[C@H](O)[C@H]3O)C2=O)C1=O [carthamin] | – | – | – | – | – | – | – | 27.20 ± 0.39 (≈ 29.9 mM) | 1.43 ± 0.01 (≈ 1.57 mM) | 1.24 ± 0.21 (≈ 1.36 mM) | 22.47 ± 1.00 (≈ 24.7 mM) | 14.05 ± 0.66 (≈ 15.4 mM) | – |
| CC(=O)O[C@H]1C(=O)[C@@]2(C)[C@H]([C@H](OC(=O)c3ccccc3)[C@]3(O)C[C@H](OC(=O)[C@H](O)[C@@H](NC(=O)c4ccccc4)c4ccccc4)C(C)=C1C3(C)C)[C@]1(OC(C)=O)CO[C@@H]1C[C@@H]2O [paclitaxel] | – | 5.39 ± 0.55 (≈ 6.31 mM) | 11.7 ± 0.68 (≈ 13.7 mM) | 0.59 ± 0.01 (≈ 0.691 mM) | – | – | – | 0.83 ± 0.16 (≈ 0.972 mM) | – | – | – | – | – |
| O=c1c(O)c(-c2ccc(O)c(O)c2)oc2cc(O)cc(O)c12 [quercetin] | 20.1 ± 0.41 (≈ 66.4 mM) | 1.72 ± 0.09 (≈ 5.69 mM) | 205 ± 7.31 (≈ 679 mM) | 146 ± 2.82 (≈ 483 mM) | 23.3 ± 2.54 | 21.6 ± 0.94 | 0.3 ± 0.002 (≈ 0.993 mM) | – | – | – | – | – | Solubility in Sucrose + Choline chloride [2]: 15.63 ± 0.57 mg/mL |
| C[C@@H]1O[C@@H](Oc2c(-c3ccc(O)c(O)c3)oc3cc(O)cc(O)c3c2=O)[C@H](O)[C@H](O)[C@H]1O [Quercitrin, quercetin-3-O-rhamnoside] | – | – | – | – | – | – | – | – | – | – | – | – | solubility ([2]; organic solvent or mixture, deep eutectic solvent Fructose + Choline chloride, read-out: Solubility in Fructose + Choline chloride): 11.2 ± 0.64 mg/mL; solubility ([2]; organic solvent or mixture, deep eutectic solvent Glucose + Choline chloride, read-out: Solubility in Glucose + Choline chloride): 7.81 ± 0.2 mg/mL; solubility ([2]; organic solvent or mixture, deep eutectic solvent Sucrose + Choline chloride, read-out: Solubility in Sucrose + Choline chloride): 12.7 ± 0.38 mg/mL; solubility ([2]; water, read-out: Solubility in Water): 0.159 ± 0.001 mg/mL (≈ 0.355 mM) |
